Reference: ChEMBL document CHEMBL4028802, “DILIrank: the largest reference drug list ranked by the risk for developing drug-induced liver injury in humans” (Drug Discov Today, 2016)

Assays:
Homo sapiens [1] = species: Homo sapiens; assay: Liver toxicity in human assessed as induction of drug-induced liver injury by measuring verified drug-induced liver injury concern status
Homo sapiens [2] = species: Homo sapiens; assay: Liver toxicity in human assessed as induction of drug-induced liver injury by measuring severity class index
Throughout, for DILI severity class: key of the grades not given here.

Row | Compound | DILI_Concern (Homo sapiens [1]) | DILI_severity_class (Homo sapiens [2])
1 | CCc1oc2ccccc2c1C(=O)c1ccc(O)cc1 [BENZARONE] | Most-Dili-Concern | 8
2 | CCc1oc2ccccc2c1C(=O)c1cc(Br)c(O)c(Br)c1 [BENZBROMARONE] | Most-Dili-Concern | 8
3 | CCc1oc2ccccc2c1C(=O)c1cc(I)c(O)c(I)c1 [BENZIODARONE] | Most-Dili-Concern | 8
4 | CCCCNc1ccc(C(=O)OCCOCCOCCOCCOCCOCCOCCOCCOCCOC)cc1 [BENZONATATE] | Less-Dili-Concern | 0
5 | C[C@@H](Cc1ccccc1)N(C)Cc1ccccc1 [BENZPHETAMINE] | No-Dili-Concern | 0
6 | CN1[C@@H]2CC[C@H]1C[C@@H](OC(c1ccccc1)c1ccccc1)C2 [BENZTROPINE] | No-Dili-Concern | 0
7 | C[N+](C)(C)CC(=O)O [BETAINE] | No-Dili-Concern | 0
8 | CC(C)NCC(O)COc1ccc(CCOCC2CC2)cc1 (stereo unspecified) [BETAXOLOL] | Ambiguous-Dili-Concern | 3
9 | CC(C[N+](C)(C)C)OC(N)=O (stereo unspecified) [BETHANECHOL] | No-Dili-Concern | 0
10 | C=C(c1ccc(C(=O)O)cc1)c1cc2c(cc1C)C(C)(C)CCC2(C)C [BEXAROTENE] | Most-Dili-Concern | 8
11 | CC(O)(CS(=O)(=O)c1ccc(F)cc1)C(=O)Nc1ccc(C#N)c(C(F)(F)F)c1 (stereo unspecified) [BICALUTAMIDE] | Most-Dili-Concern | 8
12 | OC(CCN1CCCCC1)(c1ccccc1)C1CC2C=CC1C2 (stereo unspecified) [BIPERIDEN] | No-Dili-Concern | 0
13 | CC(=O)Oc1ccc(C(c2ccc(OC(C)=O)cc2)c2ccccn2)cc1 [BISACODYL] | No-Dili-Concern | 0
14 | CC(C)NCC(O)COc1ccc(COCCOC(C)C)cc1 (stereo unspecified) [BISOPROLOL] | Ambiguous-Dili-Concern | 3
15 | CC(C)C[C@H](NC(=O)[C@H](Cc1ccccc1)NC(=O)c1cnccn1)B(O)O [BORTEZOMIB] | Most-Dili-Concern | 7
16 | COc1ccccc1Oc1c(NS(=O)(=O)c2ccc(C(C)(C)C)cc2)nc(-c2ncccn2)nc1OCCO [BOSENTAN] | Most-Dili-Concern | 7
17 | Nc1c(CC(=O)O)cccc1C(=O)c1ccc(Br)cc1 [BROMFENAC] | Most-Dili-Concern | 8
18 | CC(C)C[C@H]1C(=O)N2CCC[C@H]2[C@]2(O)O[C@](NC(=O)[C@@H]3C=C4c5cccc6[nH]c(Br)c(c56)C[C@H]4N(C)C3)(C(C)C)C(=O)N12 [BROMOCRIPTINE] | Less-Dili-Concern | 3
19 | CN(C)CCC(c1ccc(Br)cc1)c1ccccn1 (stereo unspecified) [BROMPHENIRAMINE] | No-Dili-Concern | 0
20 | CCCC1O[C@@H]2C[C@H]3[C@@H]4CCC5=CC(=O)C=C[C@]5(C)[C@H]4[C@@H](O)C[C@]3(C)[C@]2(C(=O)CO)O1 (stereo partly specified) [BUDESONIDE] | No-Dili-Concern | 0
21 | CCCCNc1cc(C(=O)O)cc(S(N)(=O)=O)c1Oc1ccccc1 [BUMETANIDE] | Ambiguous-Dili-Concern | 3
22 | CC(NC(C)(C)C)C(=O)c1cccc(Cl)c1 (stereo unspecified) [BUPROPION] | Less-Dili-Concern | 5
23 | O=C1CC2(CCCC2)CC(=O)N1CCCCN1CCN(c2ncccn2)CC1 [BUSPIRONE] | Ambiguous-Dili-Concern | 3
24 | CS(=O)(=O)OCCCCOS(C)(=O)=O [BUSULFAN] | Most-Dili-Concern | 8
25 | CCC(C)C1(CC)C(=O)NC(=O)NC1=O (stereo unspecified) [BUTABARBITAL] | Ambiguous-Dili-Concern | 3
26 | Oc1ccc2c(c1)[C@@]13CCCC[C@@]1(O)[C@@H](C2)N(CC1CCC1)CC3 [BUTORPHANOL] | No-Dili-Concern | 0
27 | C=CCN1C[C@H](C(=O)N(CCCN(C)C)C(=O)NCC)C[C@@H]2c3cccc4[nH]cc(c34)C[C@H]21 [CABERGOLINE] | No-Dili-Concern | 0

Row | Compound | DILI_Concern (Homo sapiens [1]) | DILI_severity_class (Homo sapiens [2])
28 | Cn1c(=O)c2c(ncn2C)n(C)c1=O [CAFFEINE] | No-Dili-Concern | 0
29 | CC(C)C[C@H](NC(=O)[C@H](CCCCN)NC(=O)CNC(=O)[C@H](CC(C)C)NC(=O)[C@@H](NC(=O)[C@@H]1CSSC[C@H](N)C(=O)N[C@@H](CO)C(=O)N[C@@H](CC(N)=O)C(=O)N[C@@H](CC(C)C)C(=O)N[C@@H](CO)C(=O)N[C@@H]([C@@H](C)O)C(=O)N1)C(C)C)C(=O)N[C@@H](CO)C(=O)N[C@@H](CCC(N)=O)C(=O)N[C@@H](CCC(=O)O)C(=O)N[C@@H](CC(C)C)C(=O)N[C@@H](Cc1c[nH]cn1)C(=O)N[C@@H](CCCCN)C(=O)N[C@@H](CC(C)C)C(=O)N[C@@H](CCC(N)=O)C(=O)N[C@H](C(=O)N[C@@H](Cc1ccc(O)cc1)C(=O)N1CCC[C@H]1C(=O)N[C@@H](CCCNC(=N)N)C(=O)N[C@H](C(=O)N[C@@H](CC(N)=O)C(=O)N[C@H](C(=O)NCC(=O)N[C@@H](CO)C(=O)NCC(=O)N[C@H](C(=O)N1CCC[C@H]1C(N)=O)[C@@H](C)O)[C@@H](C)O)[C@@H](C)O)[C@@H](C)O [CALCITONIN SALMON] | No-Dili-Concern | 0
30 | C=C1/C(=C\C=C2/CCC[C@]3(C)[C@@H]([C@H](C)CCCC(C)(C)O)CC[C@@H]23)C[C@@H](O)C[C@@H]1O [CALCITRIOL] | No-Dili-Concern | 0
31 | CC(=O)[O-].CC(=O)[O-].[Ca+2] [CALCIUM ACETATE] | No-Dili-Concern | 0
32 | CCCCCOC(=O)Nc1nc(=O)n([C@@H]2O[C@H](C)[C@@H](O)[C@H]2O)cc1F [CAPECITABINE] | Ambiguous-Dili-Concern | 2
33 | C[C@H](CS)C(=O)N1CCC[C@H]1C(=O)O [CAPTOPRIL] | Less-Dili-Concern | 7
34 | NC(=O)N1c2ccccc2C=Cc2ccccc21 [CARBAMAZEPINE] | Most-Dili-Concern | 7
35 | CC1(C)S[C@@H]2[C@H](NC(=O)C(C(=O)O)c3ccccc3)C(=O)N2[C@H]1C(=O)O (stereo partly specified) [CARBENICILLIN] | Less-Dili-Concern | 3
36 | C[C@@](Cc1ccc(O)c(O)c1)(NN)C(=O)O [CARBIDOPA ANHYDROUS] | Ambiguous-Dili-Concern | 3
37 | CN(C)CCOC(c1ccc(Cl)cc1)c1ccccn1 (stereo unspecified) [CARBINOXAMINE] | No-Dili-Concern | 0
38 | CCCCC[C@](C)(O)/C=C/[C@@H]1[C@@H](C/C=C\CCCC(=O)O)[C@@H](O)C[C@H]1O.NC(CO)(CO)CO [CARBOPROST TROMETHAMINE] | No-Dili-Concern | 0
39 | CCCC(C)(COC(N)=O)COC(=O)NC(C)C (stereo unspecified) [CARISOPRODOL] | No-Dili-Concern | 0
40 | COc1ccccc1OCCNCC(O)COc1cccc2[nH]c3ccccc3c12 (stereo unspecified) [CARVEDILOL] | Less-Dili-Concern | 3
41 | CC[C@H](C)C[C@H](C)CCCCCCCCC(=O)N[C@H]1C[C@@H](O)[C@@H](NCCN)NC(=O)[C@@H]2[C@@H](O)CCN2C(=O)[C@H]([C@H](O)CCN)NC(=O)[C@H]([C@H](O)[C@@H](O)c2ccc(O)cc2)NC(=O)[C@@H]2C[C@@H](O)CN2C(=O)[C@H]([C@@H](C)O)NC1=O [CASPOFUNGIN] | Ambiguous-Dili-Concern | 7
42 | N[C@@H](C(=O)N[C@@H]1C(=O)N2C(C(=O)O)=C(Cl)CS[C@H]12)c1ccccc1 [CEFACLOR ANHYDROUS] | Less-Dili-Concern | 3
43 | CC1=C(C(=O)O)N2C(=O)[C@@H](NC(=O)[C@H](N)c3ccc(O)cc3)[C@H]2SC1 [CEFADROXIL] | Less-Dili-Concern | 7
44 | Cc1nnc(SCC2=C(C(=O)O)N3C(=O)[C@@H](NC(=O)Cn4cnnn4)[C@H]3SC2)s1 [CEFAZOLIN] | Less-Dili-Concern | 3
45 | CO/N=C(\C(=O)N[C@@H]1C(=O)N2C(C(=O)O)=C(/C=C\c3scnc3C)CS[C@H]12)c1csc(N)n1 [CEFDITOREN] | Ambiguous-Dili-Concern | 2
46 | C=CC1=C(C(=O)O)N2C(=O)[C@@H](NC(=O)/C(=N\OCC(=O)O)c3csc(N)n3)[C@H]2SC1 [CEFIXIME] | Ambiguous-Dili-Concern | 4
47 | CCN1CCN(C(=O)N[C@@H](C(=O)N[C@@H]2C(=O)N3C(C(=O)O)=C(CSc4nnnn4C)CS[C@H]23)c2ccc(O)cc2)C(=O)C1=O [CEFOPERAZONE] | Less-Dili-Concern | 3
48 | CO/N=C(\C(=O)N[C@@H]1C(=O)N2C(C(=O)O)=C(COC(C)=O)CS[C@H]12)c1csc(N)n1 [CEFOTAXIME] | Less-Dili-Concern | 5
49 | CO[C@@]1(NC(=O)C2SC(=C(C(N)=O)C(=O)O)S2)C(=O)N2C(C(=O)O)=C(CSc3nnnn3C)CS[C@@H]21 (stereo partly specified) [CEFOTETAN] | Ambiguous-Dili-Concern | 3
50 | CO[C@@]1(NC(=O)Cc2cccs2)C(=O)N2C(C(=O)O)=C(COC(N)=O)CS[C@@H]21 [CEFOXITIN] | Ambiguous-Dili-Concern | 3
51 | COCC1=C(C(=O)O)N2C(=O)[C@@H](NC(=O)/C(=N\OC)c3csc(N)n3)[C@H]2SC1 [CEFPODOXIME] | Ambiguous-Dili-Concern | 3
52 | CC=CC1=C(C(=O)O)N2C(=O)[C@@H](NC(=O)[C@H](N)c3ccc(O)cc3)[C@H]2SC1 [CEFPROZIL] | Less-Dili-Concern | 4
53 | CC(C)(O/N=C(\C(=O)N[C@@H]1C(=O)N2C(C(=O)[O-])=C(C[n+]3ccccc3)CS[C@H]12)c1csc(N)n1)C(=O)O [CEFTAZIDIME] | Less-Dili-Concern | 3
